Source: patent US10034915B2, “Small heat shock proteins and active fragments thereof as a therapy for inflammation and ischemia” (The Board of Trustees of the Leland Stanford Junior …, priority 2011, dated 2018)
Entries after “also recorded” stand apart in the source; their conditions may differ.

What was measured:
[1] = tested on: EAE mice; assay: EAE in 129Sv WT mice immunized with MOG35-55/CFA, clinical scoring; type: in vivo, mouse; details: for EAE clinical scores over the course of the whole experiment (area under the curve): 10 μg sHSP protein IP every other day from peak of disease; for EAE clinical scores over the course of the whole experiment (area under the curve) / clinical paralysis / EAE clinical scores: vs PBS; for clinical paralysis / EAE clinical scores: 10 μg sHSP protein IP every other day starting at the peak of disease; for AREA UNDER THE CURVE (amount higher than HSPB5 normalized to PBS): average EAE scores, peptide every other day from peak of disease, 129Sv WT mice, n=5 per group; for therapeutic efficacy of peptide in EAE (clinical scores): peptide every other day from peak of disease (10 μg, or 1 μg equimolar to 10 μg protein)
Procedure: To investigate if the therapeutic efficacy of HSPB5 is a common feature of the whole family of small heat shock proteins, we expressed recombinant HSPB1, HSPB4, and HSPB5. We then treated EAE mice every other day starting at the peak of disease, when clinical paralysis is apparent, with an intraperitoneal (IP) administration of 10 μg of either HSPB1, HSPB4, HSPB5, or PBS as the vehicle control. […] Treating mice in vivo with HSPB1, HSPB4, or HSPB5 led to a reduction in the production of pro-inflammatory cytokines by MOG stimulated splenocytes taken from MOG immunized mice (FIG. 1c). Improvement of the clinical score was dependent on continued dosing of the sHSP. After dosing was stopped, symptoms returned, and paralysis worsened after 96 hours.
Therapeutic Peptides from HSPB5 in EAE. […] We made a series of overlapping, 15-mer peptide fragments of HSPB5 and treated mice at the peak of disease with 10 μg of each peptide every other day, using HSPB5 as a positive control and PBS as a negative control.
EAE induction and scoring. Mice were immunized subcutaneously with 100 μL of myelin oligodendrocyte glycoprotein (MOG) peptide 35-55 (2 mg/mL) and Complete Freund's adjuvant (CFA) (4 mg/mL) on Day 0. […] Mice were randomized at the peak of disease into the treatment groups where they received 10 ug/200 μL of sHSP, 1 μg/200 uL of sHSP peptide, or 200 μL of PBS (vehicle) every other day. Mice were scored every day on a clinical scoring system: 0, healthy mouse; 1, limp tail; 2, weak hindlimbs; 3, complete hindlimb paralysis; 4, weak forelimbs and paralyzed hindlimbs; 5, dead.

[2] = tested on: pro-inflammatory cytokines of MOG stimulated splenocytes; assay: Peripheral immune cell activation: cytokine production by MOG stimulated splenocytes of treated MOG immunized mice (ELISA); parameters: species or system mouse; details: mice treated in vivo; splenocytes from MOG immunized mice
Procedure: Peripheral immune cell activation and cytokine analysis. Spleens and lymph nodes were isolated from mice 9 days after immunization with MOG35-55 and CFA. Spleens were mechanically disrupted to isolate single cell splencytes suspension. Cells were cultured in flat bottomed, 96-well plates in media (RPMI 1640 supplemented with […] L-glutamine, 1 mM sodium pyruvate, 0.1 mM non-essential amino acids, 100 U/mL penicillin, 0.1 mg/mL streptomycin, 0.5 uM 2-mercaptoethanol, and 10% fetal calf serum). Cells were stimulated with MOG35-55 (5 ug/mL, 10 ug/mL, and 20 ug/mL). For all activation assays, splenocytes were pooled from three mice per group and triplicate wells were plated. Supernatants of cells were collected at the time of peak production for each cytokine (48 hrs: IL-2, IL-12p40, IL-6; 72 hrs: TNFα and IFNγ; 96 hrs: IL-17; 120 hrs: IL-10). Cytokines were measured in the supernatants using anti-mouse OPTEIA ELISA kits (BD Pharmingen for IFNγ, IL-10, IL-2, IL-6, and IL-12p40; R&D Systems for IL-17 and TNFα).

[3] = tested on: mice with EAE; assay: EAE in C57BL/6J mice (MOG35-55/CFA, pertussis toxin), neurological impairment scoring; type: in vivo, mouse; details: intraperitoneal 10-50 μg every other day starting at the peak of disease
Procedure: It was tested if the chaperone function of residues 73-92 of HspB5 were capable of reducing the symptoms of experimental allergic encephalomyelist (EAE), by inducing EAE in 9-week old female C57BL/6J by immunized subcutaneously with an emulsion containing 200 μg myelin oligodendrocyte glycoprotein 35-55 (MOG35-55; […] (SEQ ID NO:24)) in saline and an equal volume of complete Freund's adjuvant. Intraperitoneal injection of pertussis toxin at 0 and 48 h post-immunization results in paralysis beginning at day 12.

[4] = tested on: partially denatured proteins; details: in vitro, literature; cited from earlier work

In the case of HSP27 [HSPB1], the “EAE clinical scores over the course of the whole experiment (area under the curve)” value [1] is reported as “significantly improved”, the “clinical paralysis / EAE clinical scores” value [1] is reported as “significantly ameliorated clinical paralysis; also recorded: therapeutic” and the “production of pro-inflammatory cytokines by MOG stimulated splenocytes” value (shortened to “production of pro-inflammatory cytokines”) [2] is reported as “reduction”. The “clinical paralysis / clinical scores of mice with EAE” value [3] was “significant reduction of clinical paralysis”.

For “STSLSPFYLRPPSFL (listed as Homo sapiens) [HSPB5 peptide 41-55]”, the “AREA UNDER THE CURVE (amount higher than HSPB5 normalized to PBS)” value [1] was 0.28.

With “SRLFDQFFGEHLLES (listed as Homo sapiens) [HSPB5 peptide 21-35]” the “AREA UNDER THE CURVE (amount higher than HSPB5 normalized to PBS)” value [1] was 0.28.

With “LTITSSLSSDGVLTV (listed as Homo sapiens) [HSPB5 peptide 131-145]” the “AREA UNDER THE CURVE (amount higher than HSPB5 normalized to PBS)” value [1] was 0.08 and the “therapeutic efficacy of peptide in EAE (clinical scores)” value (“therapeutic efficacy of peptide in EAE” below) [1] was “therapeutic”.

In the case of DKFVIFLDVKHFSPEDLTVK [HSPB4 73-92], the “therapeutic efficacy of peptide in EAE” value [1] is reported as “therapeutic in EAE”, the “therapeutic efficacy of peptide in EAE” value ([1]; listed as HSPB4 73-93) is reported as “as therapeutic as full length proteins” and the “production of pro-inflammatory cytokines” value [2] is reported as “decrease peripheral immune activation”.

With “HLLESDLFPTSTSLS (listed as Homo sapiens) [HSPB5 peptide 31-45]” the “AREA UNDER THE CURVE (amount higher than HSPB5 normalized to PBS)” value [1] was 0.33.

In the case of “HGFISREFHRKYRIP (listed as Homo sapiens) [HSPB5 peptide 111-125]”, the “AREA UNDER THE CURVE (amount higher than HSPB5 normalized to PBS)” value [1] is reported as 0.33.

For “ITREEKPAVTAAPKK (listed as Homo sapiens) [HSPB5 peptide 161-175]”, the “AREA UNDER THE CURVE (amount higher than HSPB5 normalized to PBS)” value [1] was 0.08 and the “therapeutic efficacy of peptide in EAE” value [1] was “therapeutic”.

In the case of αA-crystallin [HSPB4], the “EAE clinical scores over the course of the whole experiment (area under the curve)” value [1] is reported as “significantly improved”, the “clinical paralysis / EAE clinical scores” value [1] is reported as “significantly ameliorated clinical paralysis; also recorded: therapeutic” and the “production of pro-inflammatory cytokines” value [2] is reported as “reduction”. The “clinical paralysis / clinical scores of mice with EAE” value [3] was “significant reduction of clinical paralysis”.

In the case of DRWRVSLDVNHFAPDELTVK [HSPB1 73-92], the “therapeutic efficacy of peptide in EAE” value [1] is reported as “therapeutic in EAE”, the “therapeutic efficacy of peptide in EAE” value ([1]; listed as HSPB1 73-93) is reported as “as therapeutic as full length proteins” and the “production of pro-inflammatory cytokines” value [2] is reported as “decrease peripheral immune activation”.

In the case of “PPSFLRAPSWFDTGL (listed as Homo sapiens) [HSPB5 peptide 51-65]”, the “AREA UNDER THE CURVE (amount higher than HSPB5 normalized to PBS)” value [1] is reported as 0.10.

For “EKDRFSVNLDVKHFS (listed as Homo sapiens) [HSPB5 peptide 71-85]”, the “AREA UNDER THE CURVE (amount higher than HSPB5 normalized to PBS)” value [1] was 0.06 and the “therapeutic efficacy of peptide in EAE” value [1] was “marked therapeutic efficacy”.

With “HSPB7: recombinant human small heat shock protein” the “clinical paralysis / EAE clinical scores” value [1] was “ameliorated EAE”.

In the case of “QVSGPERTIPITREE (listed as Homo sapiens) [HSPB5 peptide 151-165]”, the “AREA UNDER THE CURVE (amount higher than HSPB5 normalized to PBS)” value [1] is reported as 0.29.

For “RRPFFPFHSPSRLFD (listed as Homo sapiens) [HSPB5 peptide 11-25]”, the “AREA UNDER THE CURVE (amount higher than HSPB5 normalized to PBS)” value [1] was −0.11 and the “therapeutic efficacy of peptide in EAE” value [1] was “therapeutic”.

B1: HSPB3: recombinant human small heat shock protein (protein, UniProt Q12988 1-150, looked up)
Heat shock protein beta-3: MAKIILRHLIEIPVRYQEEFEARGLEDCRLDHALYALPGPTIVDLRKTRAAQSPPVDSAAETPPREGKSHFQILLDVVQFLPEDIIIQTFEGWLLIKAQHGTRMDEHGFISRSFTRQYKLPDGVEIKDLSAVLCHDGILVVEVKDPVGTK
For B1, the “clinical paralysis / EAE clinical scores” value [1] was “ameliorated EAE”.

B2: Hsp20 (protein, UniProt Q9UJY1 1-196, looked up)
Heat shock protein beta-8: MADGQMPFSCHYPSRLRRDPFRDSPLSSRLLDDGFGMDPFPDDLTASWPDWALPRLSSAWPGTLRSGMVPRGPTATARFGVPAEGRTPPPFPGEPWKVCVNVHSFKPEELMVKTKDGYVEVSGKHEEKQQEGGIVSKNFTKKIQLPAEVDPVTVFASLSPEGLLIIEAPQVPPYSTFGESSFNNELPQDSQEVTCT
notes: recombinant human small heat shock protein
For B2, the “clinical paralysis / EAE clinical scores” value [1] was “ameliorated EAE”.

B3: HSPB9: recombinant human small heat shock protein (protein, UniProt Q9BQS6 1-159, looked up)
Heat shock protein beta-9: MQRVGNTFSNESRVASRCPSVGLAERNRVATMPVRLLRDSPAAQEDNDHARDGFQMKLDAHGFAPEELVVQVDGQWLMVTGQQQLDVRDPERVSYRMSQKVHRKMLPSNLSPTAMTCCLTPSGQLWVRGQCVALALPEAQTGPSPRLGSLGSKASNLTR
For B3, the “clinical paralysis / EAE clinical scores” value [1] was “ameliorated EAE”.

B4: myotonic dystrophy protein kinase binding protein, MKBP (protein, UniProt Q16082 1-182, looked up)
Heat shock protein beta-2: MSGRSVPHAHPATAEYEFANPSRLGEQRFGEGLLPEEILTPTLYHGYYVRPRAAPAGEGSRAGASELRLSEGKFQAFLDVSHFTPDEVTVRTVDNLLEVSARHPQRLDRHGFVSREFCRTYVLPADVDPWRVRAALSHDGILNLEAPRGGRHLDTEVNEVYISLLPAPPDPEEEEEAAIVEP
notes: as for B2
In the case of B4, the “clinical paralysis / EAE clinical scores” value [1] is reported as “ameliorated EAE”.

B5: Arg120Gly: naturally occurring mutated HSPB5, arginine to glycine at amino acid position 120 (protein, UniProt P02511 1-175, looked up, variant R120G)
Alpha-crystallin B chain: MDIAIHHPWIRRPFFPFHSPSRLFDQFFGEHLLESDLFPTSTSLSPFYLRPPSFLRAPSWFDTGLSEMRLEKDRFSVNLDVKHFSPEELKVKVLGDVIEVHGKHEERQDEHGFISREFHGKYRIPADVDPLTITSSLSSDGVLTVNGPRKQVSGPERTIPITREEKPAVTAAPKK
In the case of B5, the “clinical paralysis / EAE clinical scores” value [1] is listed as “did improve clinical scores; also recorded: ameliorated EAE just as well as HSPB5”, the “production of pro-inflammatory cytokines” value [2] is listed as “reduction; also recorded: suppressed” and the molecular chaperone activity [4] is listed as “partial loss of molecular chaperone activity”.

B6: Hsp22 (protein, UniProt O14558 1-160, looked up)
Heat shock protein beta-6: MEIPVPVQPSWLRRASAPLPGLSAPGRLFDQRFGEGLLEAELAALCPTTLAPYYLRAPSVALPVAQVPTDPGHFSVLLDVKHFSPEEIAVKVVGEHVEVHARHEERPDEHGFVAREFHRRYRLPPGVDPAAVTSALSPEGVLSIQAAPASAQAPPPAAAK
notes: as for B2
For B6, the “clinical paralysis / EAE clinical scores” value [1] was “ameliorated EAE”.
